Measurements from patent US8026342B2, “Compositions and methods for binding sphingosine-1-phosphate” (Lpath, Inc., priority 2006, dated 2011).

What was measured:
CNV lesions = assay: Sonepcizumab dose response in laser CNV model (fluorescein-labeled dextran); format: in vivo, mice
Procedure: Mice (n=10) received a single, bilateral intravitreal injection of escalating doses of sonepcizumab (0.085, 0.85, 1.7 or 5 μg/eye) or a high dose nonspecific (NS) antibody (3.0 μg/eye) one day prior to laser-induced rupture of Bruch's membrane. Fourteen days after laser rupture, mice were anesthetized and perfused with fluorescein-labeled dextran and choroidal flatmounts were prepared for analysis of CNV lesion size.
In this study, the effect of sonepcizumab dose amount and dose interval on CNV inhibition were examined using another validated method of quantifying CNV area in which animals were perfused with fluorescein-labeled dextran just before sacrifice. Sonepcizumab induced a dose-dependent reduction in the area of CNV resulting in a maximal inhibition of approximately 50%, at a dose of 5 μg/eye. This reduction was significant (p<0.0001 compared to non-specific antibody control using an unpaired t-test). In the dosing frequency study, similar efficacy was observed between groups treated with Sonepcizumab at a single timepoint (day 0) or at multiple timepoints (days 0 and 7) over the 14-day study.

[1] = test system: retinal neovascularization; assay: Murine model of retinopathy of prematurity: retinal neovascularization; format: in vivo, C57BL/6 mice; conditions: 5.0 μg/eye intravitreal
Procedure: C57BL/6 mice (n=7) were placed in 75% oxygen at day 7 of life and at day 12 of life were returned to room air and given an intraocular injection of 5 μg of sonepcizumab in one eye and vehicle in the contralateral eye. At day 17, the mice received an intraocular injection of anti-PECAM antibody labeled with FITC and after 8 hours, mice were euthanized and eyes were removed and fixed in PBS-buffered formalin at room temperature for 5 hours. Retinas were dissected and washed with phosphate-buffered saline containing 0.25% Triton X-100 and whole mounted. Slides were viewed with a Nikon Fluorescence Microscope and the area of retinal NV per retina was measured by image analysis.

[2] = test system: VEGF-induced angiogenesis; assay: VEGF-induced angiogenesis in GFR Matrigel plug assay; format: in vivo, nu/nu mice; conditions: 10 mg/kg i.p. every 72 hrs, 12 days
Procedure: Neovascularization in vivo was performed using the GFR Matrigel plug assay as described in Staton, et al., Int J Exp Pathol, 2004. 85(5): p. 233-48. 4-6 week old nu/nu mice were injected in the left flank with 500 uL of ice-cold GFR Matrigel. The GFR Matrigel was injected either alone (control) or after addition of 10 ug/mL VEGF supplemented with 100 ug/ml heparin. Groups consisted of 3 animals for control and sonepcizumab treatment. Animals were treated with the saline or sonepcizumab (10 mg/kg) 1 day prior to the implantation of GFR Matrigel and doses were administrated i.p. every 72 hrs for the duration of the experiment. After 12 days animals were sacrificed; the plugs were excised and immediately fixed in zinc and formalin-free fixative overnight, embedded in paraffin and sectioned (5 um). Paraffin-embedded sections were then stained for CD31 (Pharmingen). Images (9 images per section, 3 sections per plug) were taken by digital camera at 20× magnification and the CD31 positive staining was then quantified by PhotoShop 6.0 program and expressed as angiogenesis score (pixel^2) by ImageJ.

CNV and vascular leakage = assay: Vascular leakage and CNV area after laser rupture of Bruch's membrane; format: in vivo, C57BL/6 mice; conditions: 5 μg intraocular
Procedure: C57BL/6 mice (n=10) underwent laser rupture of Bruch's membrane in 3 locations in each eye and were given an intraocular injection of 5 μg of sonepcizumab in one eye and vehicle in the contralateral eye. At one week after laser rupture, the mice were given an intraperitoneal injection of 12 μl/g body weight of 1% fluorescein sodium and were euthanized 5 minutes later. The eyes were removed and fixed in PBS-buffered formalin at room temperature for 5 hours. Then the retinas were dissected, washed, and incubated with primary anti-PECAM-1. The retinas were then washed, incubated with secondary antibody (goat anti-rat IgG conjugated with rhodamine), and then flat mounted.
Quantification of CNV lesion area is measured by PECAM-1 staining. Quantification of vascular leakage is measured by fluorescein sodium staining. The total area of leakage from CNV=CNV+leakage (green)−area of CNV (red). Values represent the mean±SEM for n=10 mice/group. […] This is a 50% reduction in neovascularization (p-0.018). […] This is approximately a 38% reduction (p-0.017) in blood vessel leakage.

[3] = test system: cardiac scar formation / immune-cell wound infiltration; assay: Permanent myocardial infarction murine model (fibrosis, immune cell infiltration); format: in vivo, mice
Procedure: SPHINGOMAB reduced immune-cell wound infiltration in vivo. Mice were subjected to MI, treated with saline or 25 mg/kg SPHINGOMAB 48 hr. after surgery and then sacrificed on day 4. SPHINGOMAB reduced macrophage (A) and mast cell (B) infiltration into the wound. Data are represented as fold decrease of saline-treated values.
Studies evaluated the efficacy of SPHINGOMAB to reduce cardiac scar formation after permanent myocardial infarction (MI) via ligation of the left descending coronary artery in mice. Systemic administration of 25 mg/kg SPHINGOMAB or saline was initiated 48 hrs after surgery. Antibody administration at 48 hr. was chosen to allow normal, reparative scar formation to occur during the early remodeling phase and permit beneficial, S1P-stimulated angiogenesis immediately after the MI. Two weeks after the infarct, mice were sacrificed and fibrosis was accessed by Masson's trichrome staining of the cardiac tissue. […] As a control for any non-specific wound-healing responses, sham animals underwent thoracotomy without coronary artery ligation (FIG. 7E).
Based upon the similarities of immune and inflammatory responses in CNV and CVD, the efficacy of SPHINGOMAB to mitigate immune cell infiltration into a wound was evaluated in a murine infarct model as an indication of SPHINGOMAB's potential effects in mitigating these damages during AMD [Vine, et al. (2005), Ophthalmology., vol 112: 2076-80; and Seddon and Chen (2004), Int Ophthalmol Clin., vol 44: 17-39]. Four days post-MI, macrophage and mast cell infiltration was evaluated using MAC-1 and MCG35 antibodies, respectively, within the area at risk.

[4] = test system: ovarian cancer (OVCAR3) cells; assay: S1P-induced IL-8 release from ovarian cancer cells; format: cell-based, human; conditions: 1 uM S1P
Procedure: After 22 hours of incubation, cell supernatants were collected and IL-8 secretion was measured by ELISA using an R&D Systems Quantikine human CXCL8/IL-8 kit.
In parallel, all the variants were tested for their effects on S1P-induced cytokine release from cancer cells.

Row | Molecule | maximal inhibition of CNV area (CNV lesions; 5 μg/eye single intravitreal, 14 days) | reduction in CNV lesion size greater than that observed with the VEGF-Trap (CNV lesions; comparison of two independent studies, VEGF-Trap 4.92 μg/eye (Saishin et al.)) | reduction in retinal neovascularization compared to saline control [1] | prevention of VEGF-stimulated increase in cellularity and microvessel density [2] | reduction in blood vessel leakage vs saline (CNV and vascular leakage) | reduction in neovascularization vs saline (CNV and vascular leakage) | area of choroidal neovascularization (PECAM-1) (CNV and vascular leakage; one week after laser) | area of leakage from choroidal neovascularization (fluorescein) (CNV and vascular leakage; one week after laser) | perivascular fibrosis ([3]; 25 mg/kg from 48 hrs after surgery, two weeks after infarct) | density of inflammatory macrophages ([3]; four days post-MI) | density of mast cells ([3]; four days post-MI) | reduction of S1P-induced IL-8 release [4]
1 | LT1009: humanized anti-S1P IgG1/kappa mAb with Cys to Ala in HCDR2, light chain with 5 backmutations; SEQ ID NO: 31/32 | approximately 50% | 20 percentage points | ~4 fold | ~80% | ~38% | 50% | approximately 0.015 mm^2 | approximately 0.125 mm^2 | – | – | – | –
2 | LT1002: murine anti-S1P monoclonal antibody, IgG1 kappa, from hybridoma clone 306D326.26 (antibody, listed as Mus sp., V domains shown) VH: QAHLQQSDAELVKPGASVKISCKVSGFIFIDHTIHWMKQRPEQGLEWIGCISPRHDITKYNEMFRGKATLTADKSSTTAYIQVNSLTFEDSAVYFCARGGFYGSTIWFDFWGQGTTLTVS VL: ETTVTQSPASLSMAIGEKVTIRCITTTDIDDDMNWFQQKPGEPPNLLISEGNILRPGVPSRFSSSGYGTDFLFTIENMLSEDVADYYCLQSDNLPFTFGSGTKLEIK | – | – | – | – | – | – | – | – | almost complete abrogation | dramatically attenuated | dramatically attenuated | reduced IL-8 release
